Like-named read-outs stand apart in the source and are kept apart here.

The test system of one data set is H460 cell. Kind of data set: Proliferation assay (crystal violet), H460. In kind it is cell-based. The note with it: Homo sapiens, NCI-H460, 96 h; H460, 4 days incubation; read-out: Inhibition of H460 cell proliferation (activity range) IC50. Here is the method: (§1) After 24 hours, the cells of one plate (zero-point plate) were stained with crystal violet (see below), while the medium of the other plates was replaced by fresh culture medium (200 µL), to which the test substances were added in various concentrations (0 µM, as well as in the range of 0.001-10 µM; the final concentration of the solvent dimethyl sulfoxide was 0.5%). The cells were incubated for 4 days in the presence of test substances. Cell proliferation was determined by staining the cells with crystal violet: the cells were fixed by adding 20 µL/measuring point of an 11% glutaric aldehyde solution for 15 minutes at room temperature. After three washing cycles of the fixed cells with water, the plates were dried at room temperature. The cells were stained by adding 100 µL/measuring point of a 0.1% crystal violet solution (pH 3.0). After three washing cycles of the stained cells with water, the plates were dried at room temperature. The dye was dissolved by adding 100 µL/measuring point of a 10% acetic acid solution. […] The change of cell number, in percent, was calculated by normalization of the measured values to the absorbance values of the zero-point plate (=0%) and the absorbance of the untreated (0 µM) cells (=100%). The IC50 values were determined by means of a 4 parameter fit using the company's own software.

In the next data set the test system is B 16F 10 cell. Kind of data set: Proliferation assay (crystal violet), B16F10. In kind it is cell-based, mouse. The note with it: B16F10, 4 days incubation, read-out: Inhibition of B 16F 10 cell proliferation IC50. As for the experimental part:
as §1

A further data set deals with CACO-2 cell. As to the kind of experiment: Proliferation assay (crystal violet), CACO-2. Type of data set: cell-based. The note with it: Homo sapiens, 96 h; CACO-2, 4 days incubation; read-out: Inhibition of CACO-2 cell proliferation IC50. Here is the method:
as §1

The subject of the next data set is HeLa/MaTu/ADR cell. Kind of data set: Proliferation assay (crystal violet), HeLa/MaTu/ADR. The conditions noted are these: HeLa/MaTu/ADR (multidrug-resistant), 4 days incubation, read-out: Inhibition of HeLa/MaTu/ADR cell proliferation IC50. Type of data set: cell-based, human. Here is the method:
as §1

In the next data set the test system is DU145 cell. As to the kind of experiment: Proliferation assay (crystal violet), DU145. The note with it: DU145, 4 days incubation, read-out: Inhibition of DU145 cell proliferation IC50. In kind it is cell-based, human. Here is the method: as §1
A further data set relates to HeLa cell. As to the kind of experiment: Proliferation assay (crystal violet), HeLa. Type of data set: cell-based, human. The conditions noted are these: 4 days incubation, read-out: Inhibition of HeLa cell proliferation IC50. Here is the method: as §1
Data set [1] is described as follows: Equilibrium shake flask solubility assay. Type of data set: physicochemical. The conditions noted are these: phosphate buffer pH 6.5, 24 hrs, room temperature; 1440 min. As for the experimental part:
4. Equilibrium Shake Flask Solubility Assay:
The thermodynamic solubility of compounds in water was determined by an equilibrium shake flask method (see for example: E.H. Kerns, L. Di: Drug-like Properties: Concepts, Structure Design and Methods, 276-286, Burlington, MA, Academic Press, 2008). A saturated solution of the drug was prepared and the solution was mixed for 24 h to ensure that equilibrium was reached. The solution was centrifuged to remove the insoluble fraction and the concentration of the compound in solution was determined using a standard calibration curve.
To prepare the sample, 2 mg solid compound was weighed in a 4 mL glass vial. 1 mL phosphate buffer pH 6.5 was added. The suspension was stirred for 24 hrs at room temperature. The solution was centrifuged afterwards. To prepare the sample for the standard calibration, 2 mg solid sample was dissolved in 30 mL acetonitrile. After sonification the solution was diluted with water to 50 mL.. Sample and standards were quantified by HPLC with UV-detection. For each sample two injection volumes (5 and 50 µl) in triplicates were made. Three injection volumes (5 µl, 10 µl and 20 µl) were made for the standard.
The areas of sample- and standard injections as well as the calculation of the solubility value (in mg/l) were determined by using HPLC software (Waters Empower 2 FR).

On to `CCOC(=O)N=S(C)(=O)Cc1cccc(Nc2ncnc(-c3ccc(F)cc3OC)n2)c1` (racemic) [Compound 1, (rac)-Ethyl [(3-{[4-(4-fluoro-2-methoxyphenyl)-1,3,5-triazin-2-yl]amino}benzyl)(methyl)oxido-λ^6-sulfanylidene]carbamate], for which the IC50 is 360 nM in the data set with H460 cell; 360 nM with B 16F 10 cell (Mus musculus, B16-F10, 96 h); 390 nM in the data set on CACO-2 cell; 380 nM with HeLa/MaTu/ADR cell (Homo sapiens, 96 h); 390 nM with DU145 cell (Homo sapiens, DU-145, 96 h); 1000 nM in the data set with HeLa cell (Homo sapiens, 96 h).
For the compound `COc1cc(F)ccc1-c1ncnc(Nc2cccc(CS(C)(=N)=O)c2)n1` (racemic) [Compound 2, (rac)-4-(4-Fluoro-2-methoxyphenyl)-N-{3-[(S-methylsulfonimidoyl)methyl]phenyl}-1,3,5-triazin-2-amine], in the data set with HeLa cell (Homo sapiens, 96 h), the IC50 worked out at 1100 nM.
`CS(=N)(=O)Cc1cccc(Nc2ncnc(-c3ccc(F)cc3OCc3ccccc3)n2)c1` (racemic) [Compound 6, (rac)-4-[2-(Benzyloxy)-4-fluorophenyl]-N-{3-[(S-methylsulfonimidoyl)methyl]phenyl}-1,3,5-triazin-2-amine]: the IC50 is 160 nM in the data set with H460 cell; 250 nM in the data set with B 16F 10 cell (Mus musculus, B16-F10, 96 h); 270 nM in the data set with CACO-2 cell; 200 nM with HeLa/MaTu/ADR cell (Homo sapiens, 96 h); 180 nM with DU145 cell (Homo sapiens, DU-145, 96 h); under 100 nM in the data set on HeLa cell (Homo sapiens, 96 h).
Regarding `CCOC(=O)N=S(C)(=O)Cc1cccc(Nc2ncnc(-c3cc(F)c(F)cc3OC)n2)c1` (racemic) [Compound 9, (rac)-Ethyl [(3-{[4-(4,5-difluoro-2-methoxyphenyl)-1,3,5-triazin-2-yl]amino}benzyl)(methyl)oxido-λ^6-sulfanylidene]carbamate], in the data set with HeLa cell (Homo sapiens, 96 h), the IC50 worked out at 400 nM.
`COc1cc(F)ccc1-c1ncnc(Nc2cccc(CS(C)(=N)=O)c2)n1` (single isomer, unassigned; (+)) [Compound 4, (+)-4-(4-Fluoro-2-methoxyphenyl)-N-{3-[(S-methylsulfonimidoyl)methyl]phenyl}-1,3,5-triazin-2-amine]: the IC50 in the data set on B 16F 10 cell was 1000 nM; with HeLa/MaTu/ADR cell, 440 nM; in the data set on DU145 cell it was 670 nM; in the data set on HeLa cell, 970 nM. Besides, the “Solubilty in mg/l. (thermodynamic solubility in water)” value in data set [1] is 479 mg/L.
Consider `COc1cc(F)ccc1-c1ncnc(Nc2cccc(CS(C)(=N)=O)c2)n1` (single isomer, unassigned; (-)) [Compound 3, (-)-4-(4-Fluoro-2-methoxyphenyl)-N-{3-[(S-methylsulfonimidoyl)methyl]phenyl}-1,3,5-triazin-2-amine], for which the IC50 in the data set with B 16F 10 cell (Mus musculus, B16-F10, 96 h) was determined as 1000 nM; with HeLa/MaTu/ADR cell (Homo sapiens, HeLa, 96 h), 400 nM; in the data set with DU145 cell (Homo sapiens, DU-145, 96 h), 740 nM; in the data set on HeLa cell (Homo sapiens, 96 h) it was 1100 nM.

Values taken from patent EP2527332A1, “4-Aryl-N-phenyl-1,3,5-triazin-2-amines containing a sulfoximine group as CDK9 inhibitors” (Bayer Intellectual Property GmbH, priority 2011, dated 2012).
